The assay concerns rat corneal epithelial cells. Briefly: Cell detaching and suspending effect (Experimental Example 4). Type of assay: cell-based. How it is done: A culture solution in which FBS was added to a normal serum-free cell culture solution in a concentration of 10% (10% FBS cell culture solution) was prepared in a culture dish. To this, rat corneal epithelial cells were added at 10^6 cells/ml and cultured for 24 hours under normal cell culture conditions (37° C., CO2 concentration of 5%, humidity of 100%) to make the cultured cells fully adhere to the culture dish wall which is a scaffold.
The culture solution in the culture dish on which cultured cells obtained as described above had adhered was replaced with each of dextran sulfate aqueous solutions and a dextran aqueous solution, which are respectively obtained by dissolving dextran sulfate (Dextran sodium sulfate MW 36000-50000, available from FUJIFILM Wako Pure Chemical Corporation) and dextran (Dextran MW 35000-50000, available from FUJIFILM Wako Pure Chemical Corporation) in purified water and have concentrations shown in Table 13, and the resultant culture solutions were continuously cultured under normal cell culture conditions (37° C., CO2 concentration of 5%, humidity of 100%). For each adherent cell, detachment and suspension of adherent cells from the dish wall was observed over time. For determination of detachment and suspension, the culture dish was gently shaken manually to observe whether the cells were detached from the dish wall and suspended, and the case where 90% or more of the cells were detached and suspended was determined as detachment and suspension of adherent cells. The results are of N=4. In Table 13, “∘” means that the cells were detached and suspended, and “x” means that the cells were not detached and suspended.

In the case of dextran sulfate [DS], the “Detachment and suspension of adherent cells by lapse time after replacement (hour)” value is “∘ (“∘” means that the cells were detached and suspended)” (DS 0.1 mg/mL aqueous solution (MW 36000-50000), later lapse times up to 48 h, span not shown); “x (“x” means that the cells were not detached and suspended)” (DS 0.1 mg/mL aqueous solution (MW 36000-50000), starts at <12 h); “∘ (“∘” means that the cells were detached and suspended)” (DS 1 mg/mL aqueous solution (MW 36000-50000), later lapse times up to 48 h, span not shown); “x (“x” means that the cells were not detached and suspended)” (DS 1 mg/mL aqueous solution (MW 36000-50000), starts at <12 h); “∘ (“∘” means that the cells were detached and suspended)” (DS 10 mg/mL aqueous solution (MW 36000-50000), later lapse times up to 48 h, span not shown); “x (“x” means that the cells were not detached and suspended)” (DS 10 mg/mL aqueous solution (MW 36000-50000), starts at <12 h).

The record behind these values is patent US20240099295A1, “CELL TREATMENT AGENT” (AYA Inc., priority 2021, published 2024).
